According to paper PMC8171087, “Pharmacological inhibition of noncanonical EED-EZH2 signaling overcomes chemoresistance in prostate cancer” (Theranostics, 2021):

Target: embryonic ectoderm development (EED) (Homo sapiens, UniProt O75530)
Sequence (O75530 2-441): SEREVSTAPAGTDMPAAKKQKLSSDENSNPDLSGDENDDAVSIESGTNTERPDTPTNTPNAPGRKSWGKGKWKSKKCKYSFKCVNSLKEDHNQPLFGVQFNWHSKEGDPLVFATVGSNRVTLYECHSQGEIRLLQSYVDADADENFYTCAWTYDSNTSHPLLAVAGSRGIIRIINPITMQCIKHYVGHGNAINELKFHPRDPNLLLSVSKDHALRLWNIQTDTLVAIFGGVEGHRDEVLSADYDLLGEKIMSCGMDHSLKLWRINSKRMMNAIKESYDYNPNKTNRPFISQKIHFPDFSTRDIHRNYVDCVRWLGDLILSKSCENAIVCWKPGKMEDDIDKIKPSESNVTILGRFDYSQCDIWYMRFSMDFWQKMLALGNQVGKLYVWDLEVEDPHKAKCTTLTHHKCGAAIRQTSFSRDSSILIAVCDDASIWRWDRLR

CCOP(=O)(OCC)C(NC(=O)[C@H](Cc1ccc(-c2ccccc2)cc1)NC(=O)/C=C/c1ccc(-c2ccccc2)cc1)P(=O)(OCC)OCC [LG1980]
Kd: 2.71 µM
